Measured values reported in patent publication US8518993B2, “Combination of bioavailable methionine with at least one essential oil” (Adisseo Ireland Ltd., priority 2005, dated 2013).

Tested on: ileal flora of meat chicken
Assay: Gas production in vitro by ileal contents of meat chicken (wheat-based diet)
Assay type: cell-based
Text: The purpose of the following tests is to compare the production of gas by the flora of the ileal contents of meat chicken, in relation to various test parameters. The production of gas is an indirect indicator of the bacterial activity of the ileal flora of the chicken.
50 meat chicken are raised with a wheat-based diet. These chicken are raised with the same nutritional regimen. The chicken are sacrificed on the 35th day, then the contents of their ileum are removed in anaerobic conditions. The contents are placed in bottles which are stored at −18° C.
Based on the experimental design described in Table I below, the volume of gas produced is measured as a function of time.
48 bottles are filled successively with:
the treatment (nothing for the negative control, HMTBA, EO or the test item),
90 ml of buffer solution, containing wheat starch (nutrient medium for the bacteria); the function of this buffer solution is to maintain a constant pH and suppress O2
10 ml of inoculum, comprising a mixture of ¼ of ileal contents and ¾ of sterile physiological solution, which is filtered and homogenized before filling.
The doses tested are calculated to be representative of the concentrations of the products that would be found in the gastrointestinal contents of the animals.
Using the experimental design described in Table I above, curves of the volume of gas produced as a function of time are obtained, and are mostly sigmoidal.
These curves are modelled according to the following model: Y=A/(1+(C/t)^B) where
A, B and C=parameters of the model
Using these equations, we then analyse the modelled final volume Vf (Vf=A), as well as the time for which the rate of production of gas is maximum, called Trm (this time is used as an indirect measure of the latency, which is not accessible with this model). […] If the probability of the treatment effect is significant, i.e. if p<0.05, the means are then compared by the Fisher PLSD test, which makes it possible to establish the differences on the means between the various treatments.
The experimental conditions and parameters of Example 1 are repeated in Example 2, according to Table III below.
The experimental conditions and parameters of example 1 are repeated in Example 3, according to Table V below.
The experimental conditions and parameters of Example 1 are repeated in example 4, according to Table VII below.
For this test, ileal flora derived from 35-day-old chickens fed with a wheat-based diet is used.
In this test, one of the mixtures tested in Example 1 is tested.

[1] = Example 1, wheat-based diet, HMTBA 83 mg, EO 28-50 mg per bottle (Table I), 4 repetitions
[2] = Example 2, HMTBA 83 mg, EO 15 mg (Table III), EO1 red thyme, EO2 tea tree
[3] = Example 3, HMTBA 83 mg, EO 15 mg (Table V), EO1 cinnamon
[4] = Example 4, HMTBA 83 mg, MEO 15 mg (Table VII), MEO 3/4 tea tree and 1/4 cinnamon
[5] = Example 8, HMTBA 113 mg, origanum oil 13 mg (Table XII)

With “2-hydroxy-4-methylthiobutanoic acid [HMTBA]” the “Effect on bacterial activity measured by Trm (in words)” value (Example 1) was “little if any effect”, the “Trm: time for which the rate of production of gas is maximum, Mean” value [1] was 10.8 h and the “Vf: final volume of gas produced, Mean” value [1] was 565 mL. The “Trm: time for which the gas production rate is at a maximum, Mean” value (“Trm: time … at a maximum, Mean” below) [2] was 20.3 h, the “Vf: final volume of gas produced, Mean” value [2] was 296.2 mL and the “Trm: time … at a maximum, Mean” value [3] was 28.1 h. The “Vf: final volume of gas produced, Mean” value [3] was 334.3 mL, the “Trm: time … at a maximum, Mean” value [4] was 15.4 h and the “Vf: final volume of gas produced, Mean” value [4] was 421 mL. For the same substance, the “Trm difference with the negative control” value (Example 4, negative control Trm 11.1 h) was 4.3 h, the “Effect on fermentation / activity of the bacterial flora (in words)” value (Example 8) was “no significant effect” and the “Trm, Means” value [5] was 16.2 h. For the same substance, the “Vf, Means” value [5] was 353 mL.
